According to the supplement of paper PMC10307832:

Experiments:
Assay in all cases: relative viability (nuclei count vs DMSO), 5 days (fraction); higher = more cells survive
[1] = compound: Cc1nc(C(=O)NCC(=O)O)c(O)c2ccc(Oc3ccccc3)cc12 [FG-4592] + C[C@@H](Oc1cc(-c2cnn(C3CCNCC3)c2)cnc1N)c1c(Cl)ccc(F)c1Cl [Crizotinib] (partner 1 µM)
In short: (§1)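 Values are medians from duplicate plates. Each reflects relative viability, defined as the nuclei count of treated wells over that of vehicle wells. Lung cancer cell lines in 1536-well plates were pin-tool dosed one day after seeding with one drug alone or with a fixed anchor-drug dose plus five library-drug doses (not always all listed) in √10 steps, then fixed, stained and imaged at 4× after 5 days.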

[2] = compound: Cc1nc(C(=O)NCC(=O)O)c(O)c2ccc(Oc3ccccc3)cc12 [FG-4592] + Nc1ncn([C@H]2C[C@H](O)[C@@H](CO)O2)c(=O)n1 [Decitabine] (partner 2 µM)
In short: as §1

[3] = compound: Cc1nc(C(=O)NCC(=O)O)c(O)c2ccc(Oc3ccccc3)cc12 [FG-4592] + CC(C)C[C@H](NC(=O)[C@H](Cc1ccccc1)NC(=O)c1cnccn1)B(O)O [Bortezomib] (partner 0.002 µM)
In short: as §1

[4] = compound: Cc1nc(C(=O)NCC(=O)O)c(O)c2ccc(Oc3ccccc3)cc12 [FG-4592] + O=C(c1cc(Cc2n[nH]c(=O)c3ccccc23)ccc1F)N1CCN(C(=O)C2CC2)CC1 [Olaparib] (partner 8 µM)
In short: as §1

UMC-11
relative viability ([1]; first compound 0.08 µM): 0.546 | relative viability ([1]; first compound 0.253 µM): 0.644 | relative viability ([1]; first compound 0.8 µM): 0.582 | relative viability ([1]; first compound 2.53 µM): 0.642 | relative viability ([1]; first compound 8 µM): 0.536 | relative viability ([2]; first compound 0.08 µM): 0.54 | relative viability ([2]; first compound 0.253 µM): 0.604 | relative viability ([2]; first compound 0.8 µM): 0.532 | relative viability ([2]; first compound 2.53 µM): 0.423 | relative viability ([2]; first compound 8 µM): 0.365 | relative viability ([3]; first compound 0.08 µM): 0.752 | relative viability ([3]; first compound 0.253 µM): 0.771 | relative viability ([3]; first compound 0.8 µM): 0.633 | relative viability ([3]; first compound 2.53 µM): 0.75 | relative viability ([3]; first compound 8 µM): 0.692 | relative viability ([4]; first compound 0.08 µM): 0.286 | relative viability ([4]; first compound 0.253 µM): 0.332 | relative viability ([4]; first compound 0.8 µM): 0.357 | relative viability ([4]; first compound 2.53 µM): 0.341 | relative viability ([4]; first compound 8 µM): 0.348
